The text below walks through data of patent US9365522B2, “Pyrazole amide derivative” (AMGEN INC., priority 2015, dated 2016).

Structures are written as SMILES.

The target in this experiment is T1, ligand binding domain of human ROR gamma (Homo sapiens, UniProt P51449).
T1 construct: NM_001001523; expressed in transfected cells; host or cells: HEK293T
T1 sequence (P51449 247-497 isoform P51449-2): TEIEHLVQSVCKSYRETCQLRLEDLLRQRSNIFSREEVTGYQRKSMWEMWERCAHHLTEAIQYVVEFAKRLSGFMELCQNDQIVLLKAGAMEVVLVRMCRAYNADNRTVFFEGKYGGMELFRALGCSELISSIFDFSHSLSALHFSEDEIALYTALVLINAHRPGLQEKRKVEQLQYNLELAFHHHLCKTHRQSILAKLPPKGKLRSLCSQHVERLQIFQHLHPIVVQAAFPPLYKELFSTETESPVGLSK
Description: ROR gamma reporter gene assay (GAL4-RORγ LBD luciferase, Dual-Glo). Format: cell-based. To be noted: HEK293T cells transfected with pM-ROR gamma, 8 concentrations 3.5 nM to 10.5 μM, 24 h incubation; read-out: result (pIC50, inhibition of RORγ transcriptional activity) (converted). In short, it runs like this:
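Transient GAL4-RORγ LBD (aa 247-497) / 5×UAS-luc / pRL-CMV cotransfection in HEK293T, charcoal-stripped 10% FBS. 8-pt dose, 3.5 nM–10.5 μM, 0.075% DMSO final. 24 h, 37 °C, 5% CO2. Dual-Glo firefly/renilla readout; pIC50 from curve fit.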
For orientation: Reporter assays use an easily measured gene product as a stand-in for the process of interest.
Regarding `CC1(C)C(CN(CC(=O)c2c(Cl)cncc2Cl)C(=O)c2cnn(C34CCC(C(=O)O)(CC3)CC4)c2C(F)(F)F)C1(C)C` [Example 322, 4-(4-((2-(3,5-dichloropyridin-4-yl)-2-oxoethyl)-((2,2,3,3-tetramethylcyclopropyl)methyl)carbamoyl)-5-(trifluoromethyl)pyrazol-1-yl)bicyclo[2.2.2]octane-1-carboxylic acid], the IC50 was 8130 pM. Consider `CC1(C)CCC(N(CC(=O)c2c(Cl)cncc2Cl)C(=O)c2cnn([C@H]3CC[C@](C)(C(=O)O)CC3)c2C(F)(F)F)CO1` (stereo partly drawn) [Example 323, trans-4-(4-((2(3,5-dichloropyridin-4-yl)-2-oxoethyl)-(6,6-dimethyloxan-3-yl)carbamoyl)-5-(trifluorornethyl)pyrazol-1-yl)-1-methylcyclohexane-1-carboxylic acid], for which the IC50 was 380000 pM. With `C[C@]1(C(=O)O)CC[C@H](n2ncc(C(=O)N(CC(=O)c3c(Cl)cncc3Cl)CC3(O)CCCC3)c2C(F)(F)F)CC1` [Example 324, trans-4-(4-((2-(3,5-dichloropyridin-4-yl)-2-oxoethyl)-((1-hydroxycyclopentyl)methyl)carbamoyl)-5-(trifluoromethyl)pyrazol-1-yl)-1-methylcyclohexane-1-carboxylic acid] the figure was 380000 pM; with `CC1(C)C(CN(CC(=O)c2c(Cl)cncc2Cl)C(=O)c2cnn([C@H]3CC[C@](C)(C(=O)O)CC3)c2C(F)(F)F)C1(C)C` [Example 325, trans-4-(4-((2-(3,5-dichloropyridin-4-yl)-2-oxoethyl)-((2,2,3,3-tetramethylcyclopropyl)methyl)carbamoyl)-5-(trifluoromethyl)pyrazol-1-yl)-1-methylcyclohexane-1-carboxylic acid], 10700 pM; with `CC(C)(F)CN(CC(=O)c1c(Cl)cncc1Cl)C(=O)c1cnn([C@H]2CC[C@](C)(C(=O)O)CC2)c1C(F)(F)F` [Example 326, trans-4-(4-((2-(3,5-dichloropyridin-4-yl)-2-oxoethyl)-(2-fluoro-2-methylpropyl)carbamoyl)-5-(trifluoromethyl)pyrazol-1-yl)-1-methylcyclohexane-1-carboxylic acid], 102000 pM. With `CC(C)(F)CN(CC(=O)c1c(Cl)cncc1Cl)C(=O)c1cnn(C23CCC(C(=O)O)(CC2)CC3)c1C(F)(F)F` [Example 327, 4-(4-((2-(3,5-dichloropyridin-4-yl)-2-oxoethyl)-(2-fluoro-2-methylpropyl)carbamoyl)-5-(trifluoromethyl)pyrazol-1-yl)bicyclo[2.2.2]octane-1-carboxylic acid], the IC50 is 97700 pM. For the compound `CC(C)(C)CN(CCc1c[nH]c2ccccc12)C(=O)c1cnn([C@H]2CC[C@](C)(C(=O)O)CC2)c1C(F)(F)F` [Example 328, trans-4-(4-(2,2-dimethylpropyl-(2-(1H-indol-3-yl)ethyl)carbamoyl)-5-(trifluoromethyl)pyrazol-1-yl)-1-methylcyclohexane-1-carboxylic acid], the IC50 is 2.95e+06 pM.

As for `O=C(CN(CC1(C(F)(F)F)CC1)C(=O)c1cnn(C23CCC(C(=O)O)(CC2)CC3)c1C(F)(F)F)c1c(Cl)cncc1Cl` [Example 329, 4-(4-((2-(3,5-dichloropyridin-4-yl)-2-oxoethyl)-((1-(trifluoromethyl)cyclopropyl)methyl)carbamoyl)-5-(trifluoromethyl)pyrazol-1-yl)bicyclo[2.2.2]octane-1-carboxylic acid], the IC50 is 14800 pM.

For the compound `C[C@]1(C(=O)O)CC[C@H](n2ncc(C(=O)N(CC(=O)c3c(Cl)cncc3Cl)CC3(C(F)(F)F)CC3)c2C(F)(F)F)CC1` [Example 330], the IC50 was 24000 pM.

Consider `CC(C)(C)[C@@H]1C[C@H]1N(CC(=O)c1c(Cl)cncc1Cl)C(=O)c1cnn([C@H]2CC[C@](C)(C(=O)O)CC2)c1C(F)(F)F` [Example 331, trans-4-(4-(((1R,2S)-2-tert-butylcyclopropyl)-(2-(3,5-dichloropyridin-4-yl)-2-oxoethyl)carbamoyl)-5-(trifluoromethyl)pyrazol-1-yl)-1-methylcyclohexane-1-carboxylic acid], for which the IC50 is 102000 pM. For `CC(COC(C)(C)C)N(CC(=O)c1c(Cl)cncc1Cl)C(=O)c1cnn([C@H]2CC[C@](C)(C(=O)O)CC2)c1C(F)(F)F` (stereo partly drawn) [Example 332, trans-4-(4-((2-(3,5-dichloropyridin-4-yl)-2-oxoethyl)-(1-((2-methylpropan-2-yl)oxy)propan-2-yl)carbamoyl)-5-(trifluoromethyl)pyrazol-1-yl)-1-methylcyclohexane-1-carboxylic acid], the IC50 is 513000 pM. `CC1(C)[C@@H]2C[C@H](N(CC(=O)c3c(F)cncc3Cl)C(=O)c3cnn([C@H]4CC[C@](C)(C(=O)O)CC4)c3C(F)(F)F)C[C@@H]21` [Example 333, trans-4-(4-((2-(3-chloro-5-fluoropyridin-4-yl)-2-oxoethyl)((1R,3r,5S)-6,6-dimethylbicyclo[3.1.0]hexan-3-yl)carbamoyl)-5-(trifluoromethyl)-1H-pyrazol-1-yl)-1-methylcyclohexanecarboxylic acid]: the IC50 was 17000 pM. The same measure for `CC(C)(C)CN(CCc1c[nH]c2cccc(Cl)c12)C(=O)c1cnn([C@H]2CC[C@](C)(C(=O)O)CC2)c1C(F)(F)F` [Example 334, trans-4-(4-(2-(4-chloro-1H-indol-3-yl)ethyl-(2,2-dimethylpropyl)carbamoyl)-5-(trifluoromethyl)pyrazol-1-yl)-1-methylcyclohexane-1-carboxylic acid]: 56200 pM. Consider `CC1(C)[C@@H]2C[C@H](N(CC(=O)c3c(F)cncc3Cl)C(=O)c3cnn(C45CCC(C(=O)O)(CC4)CC5)c3C(F)(F)F)C[C@@H]21` [Example 335, 4-(4-((2-(3-chloro-5-fluoropyridin-4-yl)-2-oxoethyl)((1R,3r,5S)-6,6-dimethylbicyclo[3.1.0]hexan-3-yl)carbamoyl)-5-(trifluoromethyl)-1H-pyrazol-1-yl)bicyclo(2.2.2)octane-1-carboxylic acid], for which the IC50 was 12300 pM. The same measure for `COc1cccc(Cl)c1C(O)CN(C(=O)c1cnn([C@H]2CC[C@](C)(C(=O)O)CC2)c1C(F)(F)F)C1CCC(C)(C)CC1` (stereo partly drawn) [Example 336, trans-4-(4-((2-(2-chloro-6-methoxyphenyl)-2-hydroxyethyl)-(4,4-dimethylcyclohexyl)carbamoyl)-5-(trifluoromethyl)pyrazol-1-yl)-1-methylcyclohexane-1-carboxylic acid]: 145000 pM. Regarding `CC1(C)CCC(N(CC(=O)c2c(Cl)cc(F)cc2Cl)C(=O)c2cnn([C@H]3C[C@](C)(C(=O)O)C3)c2C(F)(F)F)CC1` [Example 339, trans-3-(4-((2-(2,6-dichloro-4-fluorophenyl)-2-oxoethyl)-(4,4-dimethylcyclohexyl)carbamoyl)-5-(trifluoromethyl)pyrazol-1-yl)-1-methylcyclobutane-1-carboxylic acid], the IC50 is 83200 pM. With `CC(C)[C@@H]1C[C@@H]1N(CC(=O)c1c(Cl)cncc1Cl)C(=O)c1cnn([C@H]2CC[C@](C)(C(=O)O)CC2)c1C(F)(F)F` [Example 340, trans-4-(4-((2-(3,5-dichloropyridin-4-yl)-2-oxoethyl)-((1S,2S)-2-propan-2-ylcyclopropyl)carbamoyl)-5-(trifluoromethyl)pyrazol-1-yl)-1-methylcyclohexane-1-carboxylic acid], the IC50 is 123000 pM. With `COc1cccc(Cl)c1[C@@H](O)CN(C(=O)c1cnn([C@H]2CC[C@](C)(C(=O)O)CC2)c1C(F)(F)F)[C@H]1C[C@@H]2[C@H](C1)C2(C)C` [Example 341, trans-4-(4-((2-(2-chloro-6-methoxyphenyl)-2-hydroxyethyl)((1R,3r,5S)-6,6-dimethylbicyclo[3.1.0]hexan-3-yl)carbamoyl)-5-(trifluoromethyl)-1H-pyrazol-1-yl)-1-methylcyclohexanecarboxylic acid] the figure was 759000 pM. With `COc1cccc(Cl)c1[C@H](O)CN(C(=O)c1cnn([C@H]2CC[C@](C)(C(=O)O)CC2)c1C(F)(F)F)[C@H]1C[C@@H]2[C@H](C1)C2(C)C` [Example 342, trans-4-(4-((2-(2-chloro-6-methoxyphenyl)-2-hydroxyethyl)((1R,3r,5S)-6,6-dimethylbicyclo[3.1.0]hexan-3-yl)carbamoyl)-5-(trifluoromethyl)-1H-pyrazol-1-yl)-1-methylcyclohexanecarboxylic acid], the IC50 was 45700 pM.

Consider `CC1(C)[C@@H]2C[C@H](N(CCc3c[nH]c4cccc(Cl)c34)C(=O)c3cnn([C@H]4CC[C@](C)(C(=O)O)CC4)c3C(F)(F)F)C[C@@H]21` [Example 343, trans-4-(4-((2-(4-chloro-1H-indol-3-yl)ethyl)((1R,3r,5S)-6,6-dimethylbicyclo[3.1.0]hexan-3-yl)carbamoyl)-5-(trifluoromethyl)-1H-pyrazol-1-yl)-1-methylcyclohex anecarboxylic acid], for which the IC50 was 31600 pM.

For the compound `CC(C)(C)OC1CC(CN(CC(=O)c2c(Cl)cncc2Cl)C(=O)c2cnn([C@H]3CC[C@](C)(C(=O)O)CC3)c2C(F)(F)F)C1` (stereo partly drawn) [Example 344, trans-4-(4-((2-(3,5-dichloropyridin-4-yl)-2-oxoethyl)-((3-((2-methylpropan-2-yl)oxy)cyclobutyl)methyl)carbamoyl)-5-(trifluoromethyl)pyrazol-1-yl)-1-methylcyclohexane-1-carboxylic acid], the IC50 was 1.58e+06 pM.
